Data on four molecules can be found in article PMC5740070 (Scientific Reports, 2017).

Like-named read-outs stand apart in the source and are kept apart here.

The conditions of data set [1]: cited from earlier work.
The test system of another data set is BCL-xL in OCI-LY10 cells. Put plainly: Western blot for BCL-xL in ABC cell lines. Type of data set: cell-based. The note with it: voruciclib 5 µM, venetoclax 50 nM or combination, 24 hours. The text has this: Error bars represent SEM.
ECL chemiluminescent substrate (Pierce) and autoradiographic film (ThermoFisher) were used for detection of signals. MCL-1 and BCL-xL signals were quantified using Image Studio Lite (LICOR Biosciences) using β actin for normalization. Student’s t-test was used to compare mean signal intensities across different conditions. The level of significance was set at 0.05.
For orientation: In western blotting, separated proteins are transferred to a membrane and probed.

A short description of data set [2]: Modelled plasma drug levels from Phase 1 pharmacokinetic data. The note with it: humans, 250 mg/day oral, modelled from Phase 1 PK data. The procedure:
(Fig. 2a). Predicted mean plasma levels, once steady state is achieved after about 5 oral doses, fluctuate between 2 and 3.5 μM with an average near 3 μM for our model parameters. […] This was accompanied by apoptosis as represented by cleaved PARP induction starting at 1-2 μM in all models (Figs 2c, S2 and S5). Complete MCL-1 repression was typically observed at 3 μM exposures. […] Maximum, average and minimum plasma levels are shown by the red, green and blue lines respectively. The parameter set derived from the PK data after 13/15 days dosing was used for the 15-day simulation for the steady state levels attained after repeat dosing. (b) Western blot analyses for RNA POL II ([…]), MCL-1, cPARP using protein lysates isolated from SU-DHL-4 cells. β actin was used as the loading control. […] Tumors were resected 4 hours after the final dose and processed for both Western blot and IHC analyses. β actin was used as loading control for the Western blot where each lane represents an individual tumor (Tumor (T) #1-9). MCL-1 signals, normalized to β actin, were quantified and the average MCL-1 signal for each condition relative to vehicle is shown in the corresponding bar graph. Error bars represent standard error of the mean (SEM). […] DAPI was used as counterstain for IHC. Representative images are shown. Scale bar: 1000 μm.

The next data set relates to RNA POL II (pSer2). The experiment in a line: Western blot for RNA POL II (pSer2) in SU-DHL-4 cells. It counts as cell-based.
In data set [3] the test system is MCL-1 in OCI-LY10 xenograft. Put plainly: Western blot and IHC for MCL-1 in tumors after oral dosing. It counts as in vivo, mice. The note with it: 100 mpk or 200 mpk oral daily for 5 days, tumors resected 4 hours after final dose. How it is done: Maximum, average and minimum plasma levels are shown by the red, green and blue lines respectively. The parameter set derived from the PK data after 13/15 days dosing was used for the 15-day simulation for the steady state levels attained after repeat dosing. (b) Western blot analyses for RNA POL II (pSer2), MCL-1, cPARP using protein lysates isolated from SU-DHL-4 cells. β actin was used as the loading control. […] Tumors were resected 4 hours after the final dose and processed for both Western blot and IHC analyses. β actin was used as loading control for the Western blot where each lane represents an individual tumor (Tumor (T) #1-9). MCL-1 signals, normalized to β actin, were quantified and the average MCL-1 signal for each condition relative to vehicle is shown in the corresponding bar graph. Error bars represent standard error of the mean (SEM). Asterisks (*) denote p value < 0.05 calculated using the Student’s t-test for comparison of vehicle vs treatment. DAPI was used as counterstain for IHC. Representative images are shown. Scale bar: 1000 µm. […]

The subject of data set [4] is BCL-xL in OCI-LY10 xenograft. The experiment in a line: Western blot for BCL-xL in tumor lysates after oral dosing. It counts as in vivo, mice. As to conditions: 100 mpk or 200 mpk oral gavage for 5 days, compared to vehicle. An excerpt:
Each lane represents an individual tumor (Tumor (T) #1–9). BCL-xl signals, normalized to β actin, were quantified and the average BCL-xl signal for each condition relative to vehicle is shown in the corresponding bar graph. Error bars represent SEM. Asterisks (*) denote p value < 0.05 calculated using the Student’s t-test for comparison of vehicle vs treatment.
20 micrograms of protein lysate from each condition were subjected to SDS-PAGE and transferred to 0.45 micron PVDF membranes (ThermoFisher) using manufacturer’s protocol, blocked for one hour in 5% milk at room temperature, probed with primary antibodies for cPARP (rabbit CST 5625), MCL-1 (rabbit CST 39224) or BCL-xL (rabbit CST 2764), followed by corresponding HRP-conjugated secondary antibodies (Jackson ImmunoResearch). β actin (mouse CST 12262) was used as loading control. ECL chemiluminescent substrate (Pierce) and autoradiographic film (ThermoFisher) were used for detection of signals. MCL-1 and BCL-xL signals were quantified using Image Studio Lite (LICOR Biosciences) using β actin for normalization. Student’s t-test was used to compare mean signal intensities across different conditions. The level of significance was set at 0.05.

Data set [5] has as its system MCL-1 and cPARP in U2932, RIVA, OCI-LY10, NU-DHL-1, SU-DHL-4 and SU-DHL-6 cells. Put plainly: Western blot for MCL-1 and cPARP in DLBCL cell lines. As to conditions: 0.5 µM–5 µM for 6 hours. It counts as cell-based. The procedure:
Maximum, average and minimum plasma levels are shown by the red, green and blue lines respectively. The parameter set derived from the PK data after 13/15 days dosing was used for the 15-day simulation for the steady state levels attained after repeat dosing. (b) Western blot analyses for RNA POL II (pSer2), MCL-1, cPARP using protein lysates isolated from SU-DHL-4 cells. β actin was used as the loading control. […] Tumors were resected 4 hours after the final dose and processed for both Western blot and IHC analyses. β actin was used as loading control for the Western blot where each lane represents an individual tumor (Tumor (T) #1-9). MCL-1 signals, normalized to β actin, were quantified and the average MCL-1 signal for each condition relative to vehicle is shown in the corresponding bar graph. Error bars represent standard error of the mean (SEM). Asterisks (*) denote p value < 0.05 calculated using the Student’s t-test for comparison of vehicle vs treatment. DAPI was used as counterstain for IHC. Representative images are shown. Scale bar: 1000 µm.
RI-1, also known as RIVA, U2932, NU-DHL-1 cell lines were purchased from DSMZ. SU-DHL-4, SU-DHL-6 were purchased from ATCC. All lines were cultured in RPMI 1640 with L-Glutamine (ThermoFisher),10% fetal bovine serum (Thermofisher), at 37 degrees Celsius, 5% CO2. […]

Data set [6] is described as follows: Tolerability and body weight in systemic efficacy studies. The procedure: For systemic drug efficacy studies, mice were enrolled when tumors reached an average volume of 150–200 mm^3. Assignment to treatment groups was carried out via stratified randomization. Tumor dimensions were measured twice a week using digital calipers along with recording of body weight. Tumor volume was calculated using formula V = π/6 (length x width x height) in mm^3 [46]. Animals were removed from the study when either any one of the three measured dimensions of the tumor exceeded 2 cm, volume exceeded 2000 mm^3, ulceration was observed or if body weight loss greater than 20% was recorded. […] Control cohorts were administered vehicles of both drugs, and each single agent cohort was administered the vehicle of the other drug.

Details of data set [7]: method as in earlier work. The note with it: 350 mg/day, one patient out of 24; cited from earlier work.
For the next data set, the target named is T1, MAK (Homo sapiens, UniProt P20794).
T1 construct: purchased Reaction Biology Corp (contract assay)
T1 sequence (P20794 1-623): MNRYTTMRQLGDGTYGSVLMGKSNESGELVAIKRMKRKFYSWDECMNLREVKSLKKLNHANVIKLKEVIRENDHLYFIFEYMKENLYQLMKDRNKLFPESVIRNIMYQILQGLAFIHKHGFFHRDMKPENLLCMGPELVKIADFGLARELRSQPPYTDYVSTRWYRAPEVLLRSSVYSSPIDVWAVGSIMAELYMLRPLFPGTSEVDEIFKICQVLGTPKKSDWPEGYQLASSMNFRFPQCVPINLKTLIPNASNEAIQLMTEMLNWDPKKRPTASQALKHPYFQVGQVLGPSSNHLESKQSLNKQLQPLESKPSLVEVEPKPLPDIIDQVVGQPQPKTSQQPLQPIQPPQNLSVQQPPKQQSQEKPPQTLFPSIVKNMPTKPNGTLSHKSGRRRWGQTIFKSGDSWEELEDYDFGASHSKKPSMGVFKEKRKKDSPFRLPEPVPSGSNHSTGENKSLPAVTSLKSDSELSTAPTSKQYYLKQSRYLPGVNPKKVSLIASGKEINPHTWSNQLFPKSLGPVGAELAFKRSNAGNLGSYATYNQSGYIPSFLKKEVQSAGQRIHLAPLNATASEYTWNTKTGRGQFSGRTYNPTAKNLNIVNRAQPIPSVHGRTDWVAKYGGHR
Put plainly: Reaction Biology radiometric filter binding kinase assay (10-point IC50 converted to Ki). Type of data set: biochemical. As to conditions: ATP near Km; Ki calculated from 10-point IC50. How it is done: (§1) Ki values for each target were calculated and compared for the two drugs (Fig. 1b–d).
(§2) The ATP concentration was near the Km values for the respective kinases. For each kinase, an IC50 value was calculated from a 10-point concentration curve of the test article and converted to Ki values.

The target of another data set is T2, ICK (Homo sapiens, UniProt Q9UPZ9).
T2 construct: purchased Reaction Biology Corp (contract assay)
T2 sequence (Q9UPZ9 1-632): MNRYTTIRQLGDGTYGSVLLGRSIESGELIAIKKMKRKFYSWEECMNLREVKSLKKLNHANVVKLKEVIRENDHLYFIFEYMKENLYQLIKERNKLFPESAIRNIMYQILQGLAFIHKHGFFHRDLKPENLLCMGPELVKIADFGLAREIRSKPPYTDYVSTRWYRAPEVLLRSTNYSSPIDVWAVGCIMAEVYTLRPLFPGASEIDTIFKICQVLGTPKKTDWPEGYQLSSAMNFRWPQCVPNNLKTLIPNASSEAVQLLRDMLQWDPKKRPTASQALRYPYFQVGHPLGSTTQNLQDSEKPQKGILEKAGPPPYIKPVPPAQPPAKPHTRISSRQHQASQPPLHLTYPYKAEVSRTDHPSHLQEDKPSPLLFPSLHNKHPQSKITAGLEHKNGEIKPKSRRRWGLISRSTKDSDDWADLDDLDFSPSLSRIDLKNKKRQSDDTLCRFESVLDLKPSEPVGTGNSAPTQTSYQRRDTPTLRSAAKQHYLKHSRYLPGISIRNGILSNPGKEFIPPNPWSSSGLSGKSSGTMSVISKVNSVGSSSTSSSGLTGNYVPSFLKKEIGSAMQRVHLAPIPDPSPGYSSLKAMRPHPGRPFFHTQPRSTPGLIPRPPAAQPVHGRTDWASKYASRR
The description is as above. As to conditions: ATP near Km; Ki calculated from 10-point IC50. It counts as biochemical. The procedure:
as §1, §2

The target of another data set is T3, CDK1/cyc B (Homo sapiens, UniProt P06493).
T3 construct: purchased Reaction Biology Corp (contract assay)
T3 sequence (P06493 whole entry): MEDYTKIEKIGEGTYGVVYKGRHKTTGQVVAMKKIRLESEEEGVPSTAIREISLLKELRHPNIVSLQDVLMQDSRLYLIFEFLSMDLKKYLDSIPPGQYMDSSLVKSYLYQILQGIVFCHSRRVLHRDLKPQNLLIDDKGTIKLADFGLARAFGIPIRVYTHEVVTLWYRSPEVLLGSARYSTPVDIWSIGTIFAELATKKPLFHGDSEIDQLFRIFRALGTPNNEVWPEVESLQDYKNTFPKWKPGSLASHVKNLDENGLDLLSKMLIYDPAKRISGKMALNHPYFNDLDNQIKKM
T3 sequence (P14635 whole entry partner): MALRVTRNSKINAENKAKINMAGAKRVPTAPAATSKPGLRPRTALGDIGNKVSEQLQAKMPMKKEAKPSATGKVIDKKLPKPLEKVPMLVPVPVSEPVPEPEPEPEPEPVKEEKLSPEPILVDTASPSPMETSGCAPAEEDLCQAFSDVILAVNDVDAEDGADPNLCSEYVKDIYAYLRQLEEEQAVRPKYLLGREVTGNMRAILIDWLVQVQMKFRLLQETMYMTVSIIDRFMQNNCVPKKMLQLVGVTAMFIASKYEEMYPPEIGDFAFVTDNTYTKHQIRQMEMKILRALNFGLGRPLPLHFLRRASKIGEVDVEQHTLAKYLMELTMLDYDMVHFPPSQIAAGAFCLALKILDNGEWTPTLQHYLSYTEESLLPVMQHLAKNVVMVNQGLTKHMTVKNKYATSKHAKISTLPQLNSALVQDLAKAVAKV
The description is as above. It counts as biochemical. The note with it: ATP near Km; Ki calculated from 10-point IC50. The procedure:
as §1, §2

For another data set, the target named is T4, CDK1/cyc A (Homo sapiens, UniProt P06493).
T4 construct: purchased Reaction Biology Corp (contract assay)
T4 sequence (P06493 whole entry): as the sequence (P06493 whole entry) above
T4 sequence (P20248 whole entry partner): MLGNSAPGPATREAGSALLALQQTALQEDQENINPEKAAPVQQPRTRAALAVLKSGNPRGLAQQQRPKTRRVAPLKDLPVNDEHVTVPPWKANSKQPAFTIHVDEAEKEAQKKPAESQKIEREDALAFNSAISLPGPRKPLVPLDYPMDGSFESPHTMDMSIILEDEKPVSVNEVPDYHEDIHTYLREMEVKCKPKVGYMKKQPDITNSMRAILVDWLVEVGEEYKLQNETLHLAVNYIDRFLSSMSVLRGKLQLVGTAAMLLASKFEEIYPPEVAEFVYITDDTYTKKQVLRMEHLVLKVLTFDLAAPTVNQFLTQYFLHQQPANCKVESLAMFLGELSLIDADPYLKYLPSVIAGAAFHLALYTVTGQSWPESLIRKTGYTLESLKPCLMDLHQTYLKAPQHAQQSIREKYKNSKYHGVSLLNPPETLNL
The description is as above. Type of data set: biochemical. As to conditions: ATP near Km; Ki calculated from 10-point IC50. How it is done: as §1, §2

Another data set deals with T5, CDK6/cyc D1 (Homo sapiens, UniProt Q00534).
T5 construct: purchased Reaction Biology Corp (contract assay)
T5 sequence (Q00534 whole entry): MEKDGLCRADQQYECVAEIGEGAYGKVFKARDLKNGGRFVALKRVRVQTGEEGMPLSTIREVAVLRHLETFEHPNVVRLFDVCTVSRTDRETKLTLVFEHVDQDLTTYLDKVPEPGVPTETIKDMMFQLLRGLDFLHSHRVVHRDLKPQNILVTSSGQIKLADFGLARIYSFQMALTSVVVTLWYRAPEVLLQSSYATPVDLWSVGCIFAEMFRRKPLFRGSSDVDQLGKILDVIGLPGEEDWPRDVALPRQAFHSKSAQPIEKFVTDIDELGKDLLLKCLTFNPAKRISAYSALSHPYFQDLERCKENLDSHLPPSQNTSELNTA
T5 sequence (P24385 whole entry partner): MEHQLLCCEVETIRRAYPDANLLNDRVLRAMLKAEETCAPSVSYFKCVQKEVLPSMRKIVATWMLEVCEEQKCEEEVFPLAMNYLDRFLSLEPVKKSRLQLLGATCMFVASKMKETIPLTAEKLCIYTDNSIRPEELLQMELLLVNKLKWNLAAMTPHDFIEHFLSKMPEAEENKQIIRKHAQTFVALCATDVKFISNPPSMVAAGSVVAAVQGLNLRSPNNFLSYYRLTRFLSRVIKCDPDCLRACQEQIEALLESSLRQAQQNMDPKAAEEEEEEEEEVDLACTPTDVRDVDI
The data set is described as above. Type of data set: biochemical. As to conditions: ATP near Km; Ki calculated from 10-point IC50. How it is done: as §1, §2

The next data set has as its target T6, CDK4/cyc D1 (Homo sapiens, UniProt P11802).
T6 construct: purchased Reaction Biology Corp (contract assay)
Described as above. It counts as biochemical. The note with it: ATP near Km; Ki calculated from 10-point IC50. The procedure: as §1, §2

The test system of data set [8] is relapsed or refractory non-Hodgkin lymphoma (NHL). The arrangement: method as in PMID 28095146. As to conditions: relapsed or refractory NHL patients, venetoclax alone; cited from earlier work.

T6 sequence (P11802 whole entry): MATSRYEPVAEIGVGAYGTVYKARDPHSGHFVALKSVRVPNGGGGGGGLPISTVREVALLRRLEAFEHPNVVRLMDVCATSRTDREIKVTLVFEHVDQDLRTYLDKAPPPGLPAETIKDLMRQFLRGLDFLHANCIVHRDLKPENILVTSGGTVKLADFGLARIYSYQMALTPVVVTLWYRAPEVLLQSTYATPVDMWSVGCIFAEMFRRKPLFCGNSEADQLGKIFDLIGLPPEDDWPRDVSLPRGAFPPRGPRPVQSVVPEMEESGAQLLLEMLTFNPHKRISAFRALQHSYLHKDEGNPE
T6 sequence (P24385 whole entry partner): as the sequence (P24385 whole entry partner) above

One may read the Ki as the dissociation constant of the complex between target and ligand, obtained from inhibition or displacement. For the molecule `CN1CC[C@@H](c2c(O)cc(O)c3c(=O)cc(-c4ccc(C(F)(F)F)cc4Cl)oc23)[C@@H]1CO` [Voruciclib], the oral bioavailability entry in [1] (has been shown, reference not given) is “orally bioavailable”. Besides, the “BCL-xL levels in cell lysates” value in the data set with BCL-xL in OCI-LY10 cells was “elevated levels of BCL-xL”. Also, in data set [2], the “Predicted mean plasma levels at steady state (average)” value was about 3 µM. Also, in the data set on RNA POL II (pSer2), the “phosphorylation of RNA POL II” value was “inhibition of phosphorylation of RNA POL II”. Also, the “MCL-1 protein expression in tumors” value in data set [3] is on record as “decreased in a dose-dependent manner”. Also, the “BCL-xL levels in tumor lysates” value in data set [4] is listed as “elevated levels of BCL-xL”. For the same molecule, the “exposure giving complete MCL-1 repression” value in [5] (6 DLBCL models) is about 3 µM. The “concentration at which cleaved PARP induction (apoptosis) starts” value in [5] (all 6 DLBCL models) lay within 1 to 2 µM. The “tolerability, toxicity and body weight changes” value in data set [6] (mouse, in vivo, po) was “not induce any significant body weight changes”. In addition, the “patients with dose-limiting diarrhea” value in [7] is 4%. In addition, the Ki at MAK was 259 nM; at ICK, 481 nM; on CDK1/cyc B it was 5.4 nM; at CDK1/cyc A, 9.1 nM; at CDK6/cyc D1 it was 2.92 nM; on CDK4/cyc D1 it was 3.96 nM.
As for `CCc1cnn2c(NCc3ccc[n+]([O-])c3)cc(N3CCCC[C@H]3CCO)nc12` [dinaciclib], the oral bioavailability entry in data set [1] is on record as “neither of these two agents are orally bioavailable”.
Take `CN1CC[C@H](c2c(O)cc(O)c3c(=O)cc(-c4ccccc4Cl)oc23)[C@H](O)C1` [Flavopiridol, reference compound]: in data set [1], the oral bioavailability entry is “neither of these two agents are orally bioavailable”. Moreover, the Ki was 1.08 nM on MAK and 11.8 nM on ICK.
On to `CC1(C)CCC(CN2CCN(c3ccc(C(=O)NS(=O)(=O)c4ccc(NCC5CCOCC5)c([N+](=O)[O-])c4)c(Oc4cnc5[nH]ccc5c4)c3)CC2)=C(c2ccc(Cl)cc2)C1` [Venetoclax, reference compound], for which the “BCL-xL levels in cell lysates” value with BCL-xL in OCI-LY10 cells is on record as “elevated levels of BCL-xL”. In addition, the “tolerability, toxicity and body weight changes” value in data set [6] (xenografted mice (U2932, RIVA, OCI-LY10, NU-DHL-1, SU-DHL-4), oral regimens, first two cycles of treatment) is recorded as “not induce any significant body weight changes”. In data set [8], the median progression-free survival is on record as 1 month and the overall response rate was 18%.
